Values of other authors as cited in article PMC2913283 (Bioconjugate chemistry, 2010).

Conditions: initial studies

In the case of “Diethylenetriaminepenatacetic acid-(DTPA-Al^18F) complexes”, the stability in vitro is given as “not stable in vitro”.
